PMC7034129, “C-2 phenyl replacements to obtain potent quinoline-based Staphylococcus aureus NorA inhibitors” (Journal of Enzyme Inhibition and Medicinal Chemistry, 2020)
Like-named read-outs stand apart in the source and are kept apart here. Marks after values point to notes of the source that are not given here.

How the values were obtained:
SA-1199B [1] = assay: Membrane potential (polarisation) assays, BacLight kit, DiOC2(3); type: cell-based, Staphylococcus aureus; details: 30 min; for depolarised S. aureus membrane: 10 µg/mL
Protocol: Membrane potential assays were carried out by measuring the effect of 1 and 37a on the membrane potential using the BacLight Bacterial Membrane Potential Kit (Molecular Probes, Life Technologies) according to the manufacturer’s instructions. Briefly, SA-1199B was grown in MHB at 37 °C until reaching an OD600 of 0.6. Bacterial cells were then washed in PBS and diluted to 1 × 10^6 CFU/mL with filtered PBS (filter 0.22 µm) in flow cytometry tubes. Ten microliters of 3 mM 3,3-diethyloxacarbocyanine iodide (DiOC2(3) in DMSO) was added to each tube (final concentration 30 µM) and mixed. Then, 1 or 37a from a stock solution in DMSO (10 mg/mL) was added to reach final concentrations of 1, 5, and 10 µg/mL. As positive control, 10 µL of 500 µM carbonyl cyanide m-chlorophenylhydrazone (CCCP, final concentration 5 µM) was used to eradicate the proton gradient by eliminating the membrane potential. The samples were analysed after 30 min by measuring the fluorescence using a cytometer Attune NxT (ThermoFisher Scientific) with a laser emitting at 488 nm and collecting in the green and red channels. The red to green fluorescence ratio was determined and normalised against the emission from the DiOC2(3) blank tube having 1 ml of the bacterial suspension and a final concentration of DiOC2(3) of 30 µM. The results are presented as the percentage of depolarised membranes compared with the drug-free control.
Since efflux pumps need a proton gradient along the bacterial membrane, its modification/disruption can lead to an efflux inhibition. However, this effect cannot be related to a specific EPI activity; on the contrary, it relies on a non-specific interruption of the energy source (protons) that efflux pumps use to extrude their substrates by an antiport mechanism. A typical example of a compound inhibiting efflux pumps activity by this non-specific mechanism is represented by carbonyl cyanide m-chlorophenyl hydrazone (CCCP). […] Membrane polarisation was assessed by cytofluorimeter analysis using the fluorescent probe 3,3-diethyloxacarbocyanine iodide (DiOC2(3)) as its distribution is proton gradient-sensitive.

S. aureus SA-1199B = type: cell-based, Staphylococcus aureus; details: for compound concentration reducing the CPX MIC by 4-fold: chequerboard with CPX; for synergistic effect with CPX: compound concentration below 25 µg/mL
Protocol: (§1) MICs assays were performed using broth microdilution method in 96 wells-microtiter plates, following the CLSI guidelines.
(§2) Chequerboard assays and time-kill curves were performed as previously described.

SA-1199B [2] = test system: SA-1199B; set-up: method as in PMID 30067360; details: as previously reported; cited from earlier work
[3] = set-up: method as in PMID 30067360; details: in silico and in vitro, mouse liver microsomes 2 h; cited from earlier work
[4] = test system: human leukemic monocyte cell line (THP-1); set-up: method as in PMID 30067360; details: THP-1 cells; cited from earlier work
[5] = test system: human leukemic monocyte cell line (THP-1); assay: Cell viability assay (ATP bioluminescence); details: ratio between CC50 (THP-1) and minimum EPI concentration able to reduce by 4-fold CPX MIC
Protocol: (§3) THP-1 cells were grown in RPMI 1640 supplemented with 10% heat-inactivated foetal calf serum, 10,000 units of penicillin, and 10 µg of streptomycin/mL overnight to confluence. […] Cell viability was then evaluated using an ATP bioluminescence kit (Via Light kit; Cambrex). Results are expressed as 50% cytotoxic concentration (CC50). The CC50 was defined as the concentration required to reduce the cell number by 50% compared to that for the untreated controls. Each concentration was tested in triplicate.

[6] = test system: S. aureus strain SA-1199B (norA+/GrlA mutation); assay: Synergistic assays: compounds at 25 µg/mL with scalar concentrations of CPX; type: cell-based, Staphylococcus aureus; details: compound at 25 µg/mL
Protocol: as §1
(data not shown). […] Worthy of note, among the five active compounds, three were thiophene derivatives (35b, 36b and 37a) displaying their activity regardless of the position of the sulphur atom on the thiophene ring.

SA-1199B [7] = assay: MIC evaluation of compound alone (broth microdilution); type: cell-based; details: Staphylococcus aureus, read-out: antibacterial activity alone (MIC)
Protocol: as §1
The sum of both FIC values led to a FIC index (FICI) < 0.27 showing a significant synergistic effect as widely recognised for FICI values <0.5[40].

[8] = test system: S. aureus strain SA-1199 (norA wild-type); assay: Synergistic assay with CPX against norA wild-type strain; type: cell-based, Staphylococcus aureus; details: compound at 25 µg/mL, scalar CPX
Protocol: as §1

Haemolysis assays = type: cell-based
Protocol: Haemolysis assays were performed as previously described.
In order to evaluate the toxic effects of the derivative 37a, haemolysis assays were performed at scalar compound concentrations in comparison with the starting hit 1 (Figure 4).

NorA efflux pump = target: T1, NorA efflux pump (Staphylococcus aureus, UniProt P0A0J7); assay: EtBr efflux assays; type: cell-based; details: read-out: EtBr efflux inhibition
T1 construct: monitoring bacterial fluorescence of SA-1199B, overexpressing norA gene; endogenous in cells; host or cells: Staphylococcus aureus SA-1199B (norA+/GrlA mutation)
Protocol: The loss of EtBr from S. aureus SA-1199B was determined fluorometrically as previously described. The effect of various concentrations of tested compounds on the EtBr efflux of SA-1199B was compared to that in their absence, allowing the calculation of the percentage reduction in efflux.
Since EtBr is a known NorA substrate resulting fluorescent only when inside bacterial cells, monitoring bacterial fluorescence of SA-1199B, overexpressing norA gene, through a fluorimeter is a fast method to indirectly evaluate NorA inhibition. […] Indeed, we commonly consider as active NorA EPIs those compounds having an EtBr efflux inhibition ≥70%[17]^,[18].

SA-1199B [9] = assay: Time-kill curves in combination with CPX; type: cell-based, Staphylococcus aureus; details: 24 h
Protocol: as §2

[10] = Cell viability assay (ATP bioluminescence); details: human
Protocol: as §3

T1 sequence (P0A0J7 whole entry): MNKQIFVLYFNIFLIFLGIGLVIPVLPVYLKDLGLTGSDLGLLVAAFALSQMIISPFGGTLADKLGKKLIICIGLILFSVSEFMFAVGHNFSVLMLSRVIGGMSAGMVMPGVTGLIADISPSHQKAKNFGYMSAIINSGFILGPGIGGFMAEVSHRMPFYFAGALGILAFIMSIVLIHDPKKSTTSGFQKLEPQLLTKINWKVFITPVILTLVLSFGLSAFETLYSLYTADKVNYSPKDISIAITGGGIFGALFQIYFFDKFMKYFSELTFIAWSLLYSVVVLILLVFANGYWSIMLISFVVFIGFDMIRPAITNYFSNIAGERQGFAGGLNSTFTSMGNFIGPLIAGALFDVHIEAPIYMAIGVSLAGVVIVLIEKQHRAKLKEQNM

Work on `CCN(CC)CCOc1cc(-c2cccs2)nc2ccccc12` yielded a melting point of 84 to 86 °C.

`CCN(CC)CCOc1cc(-c2ccsc2)nc2ccccc12` gave a melting point of 66 to 67 °C.

For `Clc1ccc(-c2cc(OCCN3CCCCC3)c3ccccc3n2)s1`, the melting point was 99 to 101 °C.

In the case of `CCCOc1ccc(-c2cc(OCCN(CC)CC)c3ccccc3n2)cc1` [Compound 1, reference compound], the depolarised bacterial membrane (SA-1199B [1]; 1 µg/mL) is reported as “retained a significant depolarising effect”, the depolarised bacterial membrane (SA-1199B [1]; 5 µg/mL) is reported as “retained a significant depolarising effect” and the “depolarised S. aureus membrane” value (SA-1199B [1]) is reported as greater than 50%.

For `CCCOc1ccc(-c2cc(OCCN3CCCCC3)c3cc(OC)ccc3n2)cc1` [Compound 2], the “CPX MIC reduction” value (S. aureus SA-1199B; compound at 0.39 µg/mL) is listed as 2 fold, the depolarised bacterial membrane (SA-1199B [2]) is listed as “about 20%” and the “metabolic stability” value [3] is listed as “good metabolic stability”. For the same compound, the CC50 [4] was >100^b µg/mL and the “SI, selectivity index” value [5] was greater than 128.

With `CCCOc1ccc(-c2cc(OCCN(CC)CC)c3ccccc3n2)nc1.Cl` [Compound 30a, N,N-diethyl-2-{[2–(5-propoxypyridin-2-yl)quinolin-4-yl]oxy}ethanamine hydrochloride] the melting point was 212 to 213 °C, the “compound concentration reducing the CPX MIC by 4-fold” value (S. aureus SA-1199B) was 6.25 µg/mL and the “reduction of the CPX MIC” value [6] was 4 fold.

In the case of `CCCOc1ccc(-c2cc(OCCN3CCCCC3)c3ccccc3n2)nc1` [Compound 30b, 4–(2-Piperidin-1-ylethoxy)-2–(5-propoxypyridin-2-yl)quinoline], the melting point is reported as 90 to 91 °C, the “compound concentration reducing the CPX MIC by 4-fold” value (S. aureus SA-1199B) is reported as 12.5 µg/mL and the “reduction of the CPX MIC” value [6] is reported as 4 fold.

In the case of `CCCOc1ccc(-c2cc(OCCN(CC)CC)c3ccccc3n2)cn1.Cl` [Compound 31a, N,N-diethyl-2-{[2–(6-propoxypyridin-3-yl)quinolin-4-yl]oxy}ethanamine hydrochloride], the melting point is reported as 188 to 190 °C and the “synergistic effect / EPI activity with CPX” value [6] is reported as “lost EPI activity”.

For `CCCOc1ccc(-c2cc(OCCN3CCCCC3)c3ccccc3n2)cn1.Cl` [Compound 31b, 4–(2-Piperidin-1-ylethoxy)-2–(6-propoxypyridin-3-yl)quinoline hydrochloride], the melting point was 223 to 224 °C and the “synergistic effect / EPI activity with CPX” value [6] was “lost EPI activity”.

With `CCN(CC)CCOc1cc(-c2ccccn2)nc2ccccc12.Cl` [Compound 32a, N,N-diethyl-2-[(2-pyridin-2-ylquinolin-4-yl)oxy]ethanamine hydrochloride] the melting point was 173 to 174 °C and the “synergistic effect / EPI activity with CPX” value [6] was “lost EPI activity”.

In the case of `c1ccc(-c2cc(OCCN3CCCCC3)c3ccccc3n2)nc1` [Compound 32b, 4–(2-Piperidin-1-ylethoxy)-2-pyridin-2-ylquinoline], the melting point is reported as 77 to 79.5 °C and the “synergistic effect / EPI activity with CPX” value [6] is reported as “lost EPI activity”.

In the case of `CCN(CC)CCOc1cc(-c2cccnc2)nc2ccccc12.Cl` [Compound 33a, N,N-diethyl-2-[(2-pyridin-3-ylquinolin-4-yl)oxy]ethanamine hydrochloride], the melting point is reported as 181 to 182 °C and the “synergistic effect / EPI activity with CPX” value [6] is reported as “lost EPI activity”.

In the case of `c1cncc(-c2cc(OCCN3CCCCC3)c3ccccc3n2)c1` [Compound 33b, 4–(2-Piperidin-1-ylethoxy)-2-pyridin-3-ylquinoline], the melting point is reported as 101.5 to 102.5 °C and the “synergistic effect / EPI activity with CPX” value [6] is reported as “lost EPI activity”.

With `CCN(CC)CCOc1cc(-c2ccncc2)nc2ccccc12` [Compound 34a, N,N-diethyl-2-[(2-pyridin-4-ylquinolin-4-yl)oxy]ethanamine] the melting point was 73.5 to 74 °C and the “synergistic effect / EPI activity with CPX” value [6] was “lost EPI activity”.

For `Cl.c1ccc2c(OCCN3CCCCC3)cc(-c3ccncc3)nc2c1` [Compound 34b, 4–(2-Piperidin-1-ylethoxy)-2-pyridin-4-ylquinoline hydrochloride], the melting point was 183.5 to 185 °C and the “synergistic effect / EPI activity with CPX” value [6] was “lost EPI activity”.

In the case of `Cl.c1csc(-c2cc(OCCN3CCCCC3)c3ccccc3n2)c1` [Compound 35b, 4–(2-piperidin-1-ylethoxy)-2–(2-thienyl)quinoline hydrochloride], the melting point is reported as 208 to 209.5 °C, the “synergistic effect with CPX” value (S. aureus SA-1199B) is reported as “did not retain any synergistic effect” and the “reduction of the CPX MIC” value [6] is reported as 4 fold.

In the case of `c1ccc2c(OCCN3CCCCC3)cc(-c3ccsc3)nc2c1` [Compound 36b, 4–(2-Piperidin-1-ylethoxy)-2–(3-thienyl)quinoline], the melting point is reported as 109.5 to 111 °C, the “synergistic effect with CPX” value (S. aureus SA-1199B) is reported as “did not retain any synergistic effect” and the “reduction of the CPX MIC” value [6] is reported as 4 fold.

In the case of `CCN(CC)CCOc1cc(-c2ccc(Cl)s2)nc2ccccc12.Cl` [Compound 37a, (2-{[2–(5-Chloro-2-thienyl)quinolin-4-yl]oxy}ethyl)diethylamine hydrochloride], the depolarised bacterial membrane (SA-1199B [1]; 1 µg/mL) is reported as “about 20%”, the depolarised bacterial membrane (SA-1199B [1]; 5 µg/mL) is reported as “about 20%” and the “depolarised S. aureus membrane” value (SA-1199B [1]) is reported as greater than 50%. The melting point was 189 to 191 °C, the “concentration reducing CPX MIC, fold lower than own MIC” value (S. aureus SA-1199B) was no less than 64 fold and the “FIC (MIC in combination/MIC alone)” value (S. aureus SA-1199B; 37a + CPX) was less than 0.0156. The “FIC index (FICI)” value (S. aureus SA-1199B; 37a + CPX) was less than 0.27, the “compound concentration reducing the CPX MIC by 4-fold” value (S. aureus SA-1199B) was 0.39 µg/mL and the “CPX MIC in combination with compound” value (S. aureus SA-1199B; with 37a) was 2.5 µg/mL. The MIC (SA-1199B [7]) was greater than 25 µg/mL, the “synergistic effect with CPX” value [8] was “did not exhibit any significant synergistic effect” and the “reduction of the CPX MIC” value [6] was 32 fold. The haemolytic effect (Haemolysis assays; 20 µg/mL) was “about 10%”, the “haemolytic effect relative to starting hit 1” value (Haemolysis assays; 20 µg/mL) was 3 fold and the haemolytic activity (Haemolysis assays; concentrations ≤ 5 µg/mL) was “below 2%”. For the same compound, the inhibition at 50 µM (NorA efflux pump) was 74.3 ± 3.5%, the “bactericidal activity of combination (time-kill)” value (SA-1199B [9]; 37a at 3.13 and 6.25 µg/mL + CPX at its MIC) was “strongly significant and definitely higher bactericidal activity than that shown by CPX alone” and the “bactericidal effect of combination (time-kill)” value (SA-1199B [9]; 37a at 3.13 and 6.25 µg/mL + CPX at ¼ MIC) was “the same bactericidal effect as CPX tested at its MIC”. The CC50 at 24 h [10] was 6.33 µg/mL and the “SI, selectivity index” value [5] was 16.2.
